Patent EP0068617A1, “Derivatives of clavulanic acid, a process for their preparation and their use” (BEECHAM GROUP PLC, priority 1981, dated 1983)

Columns and labels:
Assay in all cases: MIC of amoxycillin in combination with the compound (synergy)
Assay type in all cases: cell-based
Conditions in all cases: amoxycillin alone
Kleb. aerogenes E70 = system: Kleb. aerogenes E70
Staph. aureus Russell = system: Staph. aureus Russell
Escherichia coli JT39 = system: Escherichia coli JT39

Structure (SMILES): CC1(C)S[C@@H]2[C@H](NC(=O)[C@H](N)c3ccc(O)cc3)C(=O)N2[C@H]1C(=O)O [Amoxycillin]
- MIC µg/ml amoxycillin (Kleb. aerogenes E70): 1000 µg/mL
- MIC µg/ml amoxycillin (Staph. aureus Russell): 500 µg/mL
- MIC µg/ml amoxycillin (Escherichia coli JT39): 2000 µg/mL
